From patent US5284834A, “Adenosine functionalized congeners as cardiovascular treating agents for animals and methods for using same” (priority 1992, dated 1994)
Entries after “also recorded” stand apart in the source; their conditions may differ. Where two headings read alike, the source gives them in different places.

Assays:
A1-receptors = details: background; cited from earlier work
[1] = target: T1, A2-adenosine receptor (adenylate cyclase, human platelet membranes) (Homo sapiens, UniProt P29274); experiment: Stimulation of adenylate cyclase in human platelet membranes; type: biochemical
T1 construct: stimulation of adenylate cyclase in human platelet membranes; from tissue; host or cells: human platelet membranes
T1 sequence (P29274 whole entry): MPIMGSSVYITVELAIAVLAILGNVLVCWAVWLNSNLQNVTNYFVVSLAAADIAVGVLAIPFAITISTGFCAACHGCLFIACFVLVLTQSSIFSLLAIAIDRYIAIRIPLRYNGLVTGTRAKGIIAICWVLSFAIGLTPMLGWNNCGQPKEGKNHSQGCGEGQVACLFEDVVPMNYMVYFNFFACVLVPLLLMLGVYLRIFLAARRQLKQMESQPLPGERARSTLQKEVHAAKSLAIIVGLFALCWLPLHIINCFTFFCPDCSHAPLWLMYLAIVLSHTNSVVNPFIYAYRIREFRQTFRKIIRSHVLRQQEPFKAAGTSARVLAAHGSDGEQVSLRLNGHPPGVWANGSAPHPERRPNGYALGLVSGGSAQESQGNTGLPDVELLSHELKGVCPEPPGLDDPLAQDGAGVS

[2] = target: T2, Coronary A2-Adenosine Receptor (Canis lupus familiaris, UniProt P11617); experiment: Coronary vasoactivity in the anesthetized, open-chest dog (intracoronary infusion; MPR from EC50); type: in vivo; details: for coronary vasoactivity (in words): intracoronary infusion; for A2 Receptor MPR Relative to MeAdo: molar potency ratio relative to N6-methyladenosine (set equal to 1.0); for A2 Receptor MPR Relative to MeAdo / A2 Receptor MPR Relative to Ado: coronary; for A2 Receptor MPR Relative to Ado: molar potency ratio: EC50 of adenosine divided by that of the analogue; for A2/A1 potency ratio (MPR(A2)/MPR(A1)): ratio of MPR (MeAdo) at dog coronary A2 receptor to MPR at rat brain A1 receptor; for A2 versus A1 receptor selectivity (in words): dog coronary A2 versus rat brain A1
T2 construct: The assay of coronary vasoactivity in the anesthetized, open-chest dog; from tissue; host or cells: coronary vessels in situ, anesthetized open-chest dog
T2 sequence (P11617 whole entry, the tested form may be a part): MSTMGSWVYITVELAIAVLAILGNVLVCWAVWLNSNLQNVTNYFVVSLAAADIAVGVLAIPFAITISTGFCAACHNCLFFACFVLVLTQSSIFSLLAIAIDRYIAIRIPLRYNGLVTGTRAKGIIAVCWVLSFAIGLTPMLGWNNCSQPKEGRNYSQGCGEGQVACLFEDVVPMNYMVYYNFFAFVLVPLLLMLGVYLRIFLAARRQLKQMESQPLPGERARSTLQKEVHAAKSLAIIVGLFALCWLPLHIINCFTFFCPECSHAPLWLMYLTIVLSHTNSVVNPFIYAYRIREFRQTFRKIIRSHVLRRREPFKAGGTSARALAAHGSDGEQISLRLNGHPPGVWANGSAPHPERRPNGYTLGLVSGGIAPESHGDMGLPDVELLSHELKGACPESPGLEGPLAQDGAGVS
Description: (§1) In the present invention there is compared the A1 - and A2 -potencies of a series of long-chain derivatives of adenosine suitable for attachment to "carriers," such as peptides or proteins, and for immobilization to polymeric matrices for affinity chromatography of adenosine receptors. The method employed is a comparison of increasing coronary blood flow via activation of an A2 -adenosine receptor versus an A1 -binding assay in rat brain.
(§2) The potencies at A2 -receptors (Table 1) are expressed as a molar potency ratio of the EC50 value of adenosine divided by that of the adenosine analogue. A common reference compound on which to base molar potency ratios was needed to facilitate comparison of activities at A1 and A2 receptors. Adenosine itself cannot be used as a reference in the A1 binding assay since treatment of the membranes with adenosine deaminase is essential. […] Thus, MeAdo was used as a suitable reference compound.
The assay of coronary vasoactivity in the anesthetized, open-chest dog, is described by Kusachi et al, J. Med. Chem., in press, and Olsson, et al, J. Circ. […] The assay estimates an EC-50, the concentration of analogue which produces a half maximum change in coronary conductance (reciprocal resistance). To reduce between-animal variability activity is expressed as a molar potency ratio (MPR) the value of the EC-50 of adenosine divided by that of the analogue. Owing to the low water solubility of some of the analogues, solutions for intracoronary infusion were prepared by diluting stock solutions in dimethyl sulfoxide. In such instances, solutions of adenosine used to establish a standard of potency also contained dimethyl sulfoxide. […]

[3] = target: T3, Brain A1-adenosine receptor (Rattus norvegicus, UniProt P25099); experiment: A1-binding assay: antagonism of binding of 1nM [3H]N6-cyclohexyladenosine to rat cerebral cortical membranes; details: for A1 Receptor MPR Relative to MeAdo: molar potency ratio derived from Ki values, rat cerebral cortical membranes
T3 construct: -cyclohexyladenosine to rat cerebral cortical membranes; from tissue; host or cells: rat cerebral cortical membranes
T3 sequence (P25099 1-326): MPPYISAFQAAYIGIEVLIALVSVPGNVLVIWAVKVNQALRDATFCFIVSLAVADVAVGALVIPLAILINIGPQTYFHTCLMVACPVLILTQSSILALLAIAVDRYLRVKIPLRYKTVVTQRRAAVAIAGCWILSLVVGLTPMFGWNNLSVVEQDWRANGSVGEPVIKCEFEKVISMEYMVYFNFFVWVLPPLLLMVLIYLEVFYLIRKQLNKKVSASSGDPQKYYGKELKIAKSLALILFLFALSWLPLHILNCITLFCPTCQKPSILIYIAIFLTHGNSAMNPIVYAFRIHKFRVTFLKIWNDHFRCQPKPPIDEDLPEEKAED
Description: as §1
^b Molar potency ratio relative to adenosine, derived from Ki
values for antagonism of binding of 1nM [^3 H]N^6
-cyclohexyladenosine to rat cerebral cortical membranes.
as §2

[4] = Octanol water partition coefficients; type: physicochemical; details: for logP: octanol water, read-out: octanol water partition coefficient
Description: B. Certain of the conjugates have ionizable groups on the attached chain. These groups alter the biodistribution of the compounds and make them less likely to enter the brain and produce central depressant effects. The effect of charged groups is reflected in octanol water partition coefficients as follows: […]

[5] = Entry into the brain and central side effects; details: in vivo

Row | Compound | coronary vasoactivity (in words) ([2]; dog) | A1 Receptor MPR Relative to MeAdo [3] | A2 Receptor MPR Relative to MeAdo ([2]; dog) | A2 Receptor MPR Relative to Ado ([2]; dog) | A2/A1 potency ratio (MPR(A2)/MPR(A1)) [2] | also measured
1 | OC[C@H]1O[C@@H](n2cnc3c(NC4CCCCC4)ncnc32)[C@H](O)[C@@H]1O [Compound 5, N^6 -cyclohexyladenosine] | – | – | – | – | – | order of potency at A1-receptors (A1-receptors): R-PIA, CHA>NECA>S-PIA
2 | O=C(O)Cc1ccc(Nc2ncnc3c2ncn3[C@@H]2O[C@H](CO)[C@@H](O)[C@H]2O)cc1 [Compound 8, N^6-(4-carboxymethylphenyl)adenosine] | only weakly active | 0.29 | – | – | – | IC50 ([1]; human platelet membranes, read-out: IC50 (printed lC50), stimulation of adenylate cyclase): 26 µM; % increase in flow over control ([2]; @ 21 μM plasma nucleoside concentration achieved during infusion): 27%; A1-binding activity (in words) [3]: only weakly active; polarity compared with compound 4 [4]: considerably more polar than 4; logP [4]: < -1.4
3 | NNC(=O)Cc1ccc(NC(=O)Cc2ccc(Nc3ncnc4c3ncn4[C@@H]3O[C@H](CO)[C@@H](O)[C@H]3O)cc2)cc1 [Compound 15] | – | 13 | 70 | 3.5 ± 0.8 | 5.3 | –
4 | Cc1ccc(Nc2ncnc3c2ncn3[C@@H]2O[C@H](CO)[C@@H](O)[C@H]2O)cc1 [Compound 7, N^6 -p-tolyladenosine, reference compound] | can exhibit some activity at this A2 -receptor | 24 | 27 | 1.35 | 1.1 | –
5 | CNc1ncnc2c1ncn2[C@@H]1O[C@H](CO)[C@@H](O)[C@H]1O [Compound 3, N^6 -methyladenosine, reference compound] | – | 1.0 | 1.0 | 0.05 | 1.0 | fold weaker than adenosine at A2-receptors ([2]; dog, in vivo): ≥ 20 -fold; fold weaker than adenosine at A1-receptors [3]: at least 10 -fold
6 | Avidin | lacked coronary vasoactivity | – | – | – | – | –
7 | COC(=O)[C@H](Cc1ccc(NC(=O)Cc2ccc(Nc3ncnc4c3ncn4[C@@H]3O[C@H](CO)[C@@H](O)[C@H]3O)cc2)cc1)NC(=O)C(F)(F)F [Compound 11] | – | 3.3 | 60 | 3.0 ± 0.7 | greater than 10 | A2/A1 potency ratio (MPR(A2)/MPR(A1)) ([2]; listed as drawing 6): 18
8 | C[C@H](Cc1ccccc1)Nc1ncnc2c1ncn2[C@@H]1O[C@H](CO)[C@@H](O)[C@H]1O [Compound 4, N^6 -R-1-Phenyl-2-propyladenosine] | – | – | – | – | – | brain entry [5]: enters the brain; central side effects [5]: produces central side effects; order of potency at A1-receptors (A1-receptors): R-PIA, CHA>NECA>S-PIA; logP [4]: 2
9 | Cc1ccc(NC(=O)Cc2ccc(Nc3ncnc4c3ncn4[C@@H]3O[C@H](CO)[C@@H](O)[C@H]3O)cc2)cc1 [Compound 10] | enhanced activity at both receptor subtypes | 35 | 42 | 2.1 ± 1.3 | 1.2 | A1-binding activity (in words) [3]: enhanced activity at both receptor subtypes
10 | OC[C@H]1O[C@@H](n2cnc3c(Nc4ccccc4)ncnc32)[C@H](O)[C@@H]1O [Compound 6, N^6 -phenyladenosine, reference compound] | can exhibit some activity at this A2 -receptor | 18 | 28 | 1.4 | 1.6 | –
11 | O=C(CCc1ccc(O)cc1)NCCNC(=O)Cc1ccc(NC(=O)Cc2ccc(Nc3ncnc4c3ncn4[C@@H]3O[C@H](CO)[C@@H](O)[C@H]3O)cc2)cc1 [Compound 17] | – | 13 | 56 | 2.8 ± 0.1 | 4.2 | –
12 | CNC(=O)Cc1ccc(NC(=O)Cc2ccc(Nc3ncnc4c3ncn4[C@@H]3O[C@H](CO)[C@@H](O)[C@H]3O)cc2)cc1 [Compound 14] | three most active analogues | 9.0 | ≥ 100 | 7.2 ± 1443 | – | A2 versus A1 receptor selectivity (in words) [2]: highly divergent at A1 and A2 receptors
13 | COC(=O)Cc1ccc(NC(=O)Cc2ccc(Nc3ncnc4c3ncn4[C@@H]3O[C@H](CO)[C@@H](O)[C@H]3O)cc2)cc1 [Compound 13] | – | 24 | 64 | 33.2 ± 1.6 | 2.7 | –
14 | O=C(CCCC[C@@H]1SC[C@@H]2NC(=O)N[C@@H]21)NCCNC(=O)Cc1ccc(NC(=O)Cc2ccc(Nc3ncnc4c3ncn4[C@@H]3O[C@H](CO)[C@@H](O)[C@H]3O)cc2)cc1 [Compound 18] | – | 5.5 | 60 | 3.0 ± 0.2 | – | A2 versus A1 receptor selectivity (in words) [2]: highly divergent at A1 and A2 receptors
15 | CNC(=O)CNC(=O)[C@H](Cc1ccc(NC(=O)Cc2ccc(Nc3ncnc4c3ncn4[C@@H]3O[C@H](CO)[C@@H](O)[C@H]3O)cc2)cc1)NC(=O)OC(C)(C)C [Compound 12] | – | 4.6 | 88 | 4.4 ± 0.4 | greater than 10 | A2/A1 potency ratio (MPR(A2)/MPR(A1)) ([2]; listed as drawing 7): 19
16 | Nc1nc(Cl)nc2c1ncn2[C@@H]1O[C@H](CO)[C@@H](O)[C@H]1O [Compound 2, 2-Chloroadenosine, reference compound] | – | 10 | 540 | 27 | 54 | –
17 | C[C@@H](Cc1ccccc1)Nc1ncnc2c1ncn2[C@@H]1O[C@H](CO)[C@@H](O)[C@H]1O [S-PIA] | – | – | – | – | – | order of potency at A1-receptors (A1-receptors): R-PIA, CHA>NECA>S-PIA
18 | CNC(=O)Cc1ccc(Nc2ncnc3c2ncn3[C@@H]2O[C@H](CO)[C@@H](O)[C@H]2O)cc1 [Compound 9] | enhanced activity at both receptor subtypes | – | – | – | – | –
19 | NCCNC(=O)Cc1ccc(NC(=O)Cc2ccc(Nc3ncnc4c3ncn4[C@@H]3O[C@H](CO)[C@@H](O)[C@H]3O)cc2)cc1 [Compound 16] | three most active analogues; also recorded: high efficacy as a coronary vasodilator | – | – | 7.8 ± 2.5 | – | IC50 [1]: 0.98 µM; polarity compared with compound 4 [4]: considerably more polar than 4; logP [4]: -0.81
